Assay results taken from ChEMBL document CHEMBL5126604, “Design, Synthesis, and Biological Evaluation of Pyrrole-2-carboxamide Derivatives as Mycobacterial Membrane Protein Large 3 Inhibitors for Treating Drug-Resistant Tuberculosis” (J Med Chem, 2022).

What was measured:
[1] = test system: Mycobacterium tuberculosis; experiment: microbe, parasite or virus in culture; conditions: Mycobacterium tuberculosis, 13946, 168 h
[2] = test system: Mycobacterium tuberculosis; experiment: microbe, parasite or virus in culture; conditions: Mycobacterium tuberculosis, 14862, 168 h

Question: What does the source list for `O=C(NC1C2CC3CC(C2)CC1C3)c1cc(-c2ccc(F)nc2F)c[nH]1` (stereo unspecified)?
Answer: MIC [1]: < 0.016 µg/mL; MIC [2]: < 0.016 µg/mL

Question: For `O=C(NC12CC3CC(CC(C3)C1)C2)c1cc(-c2ccc(F)cc2F)c[nH]1`, which MIC [1] is on record?
Answer: < 0.016 µg/mL

Question: And the MIC [2]?
Answer: < 0.016 µg/mL

Question: What does the source list for `O=C(NC12CC3CC(CC(C3)C1)C2)c1cc(-c2ccc(F)nc2F)c[nH]1`?
Answer: MIC [1]: < 0.016 µg/mL; MIC [2]: < 0.016 µg/mL
